In the METLIN SMRT retention time set (Domingo-Almenara et al. 2019):

Test: gradient 5% acetonitrile 3 min, to 50% in 2 min, to 85% in 15 min, held 3 min, 100 µL/min
Details: column: Zorbax Extend-C18 2.1 x 50 mm; eluents: water / acetonitrile, 0.1% formic acid
Outline: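 Mixtures of ~100 pure standards were chromatographed on a Zorbax Extend-C18 column (2.1 × 50 mm, 1.8 μm) at 100 μL/min using water and acetonitrile, each with 0.1% formic acid. Detection used a quadrupole time-of-flight mass spectrometer in positive and negative ionization mode, and data collection spanned 3 months. Retention time was obtained from adduct peaks picked computationally and each checked manually.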

| SMILES | RP-LC retention time [s] |
| --- | --- |
| CCc1noc(-c2ccc(-n3cnc(C(=O)NC4CCCCCC4)c3)nc2)n1 | 968 |
| CC(=O)Nc1ccc(SCc2ccccn2)nn1 | 527 |
| CC1CN(C(=O)Cn2cc(SCC(=O)NC3CCCC3)c3ccccc32)CC(C)O1 (stereo not drawn) | 826 |
| Cc1cc(C(=O)Nc2ccc3c(c2)C(=O)N(C)CCO3)no1 | 624 |
| CCNC(=O)c1cc(N2CCCC2)nc2ccc(F)cc12 | 580 |
| O=c1n(Cc2ccc(F)cc2Cl)nc2n1CCCCC2 | 751 |
| COc1ccc2[nH]cc(CCNC(=O)CC3CCN(C(=O)C4CCCCC4)CC3)c2c1 | 757 |
| CS(=O)(=O)NC1(CC2CC2)CCN(Cc2cn[nH]c2-c2ccc(F)cc2)CC1 | 623 |
| O=c1ccc(N2CCCC(NS(=O)(=O)c3ccc(F)c(Cl)c3)C2)n[nH]1 (stereo not drawn) | 706 |
| O=C(Cn1c(=O)c2cccn2c2ccc(F)cc21)N1CCCCCC1 | 840 |
| Cn1cc(C2=CCN(S(=O)(=O)c3ccc(F)cc3)CC2)c2cccnc21 | 949 |
| CCCCN1N=C(C(=O)N2CCCCCC2)S(=O)(=O)c2ccccc21 | 1030 |
| Cc1cc2oc(=O)c(C)c(C)c2c2c1C(=O)CC(c1ccc3c(c1)OCO3)O2 (stereo not drawn) | 1110 |
| CCOc1cc(C(=O)Nc2nnc(-c3ccc(Cl)s3)o2)cc(OCC)c1OCC | 986 |
| COc1ccccc1OCCNC(=O)[C@@]12CCCC[C@H]1N(C)C(=O)CC2 | 663 |
| O=C(NCC(O)c1ccc(C(F)(F)F)cc1)c1ccco1 (stereo not drawn) | 711 |
| Cc1cc(C)c2nc(Nc3nccc(C)n3)nc(C)c2c1 | 640 |
| COCc1cn(CC2CCCN(Cc3cn(C)c4ccc(OC)cc34)C2)nn1 (stereo not drawn) | 600 |
| O=C(Nc1ccc(N2CCN(C3CCCC3)C2=O)nc1)c1cccnc1 | 638 |
| O=C([C@@H]1C[C@H](Oc2cccnc2)CN1C(=O)c1cnccn1)N1CCCC1 | 552 |
| c1coc(-c2nc(-c3ccc4c(c3)nnn4CCN3CCCCC3)no2)c1 | 652 |
| O=C1Nc2cc(C(=O)N3CCN(C(=O)c4ccco4)CC3)ccc2N2CCCCC12 (stereo not drawn) | 677 |
| COc1ccc(CCC(=O)NCc2cccnc2OC)cc1 | 749 |
| O=C(CCCCCN1CCN(c2ccccc2-c2ccccc2)CC1)NC1CCCc2ccccc21 (stereo not drawn) | 926 |
| COc1ccc(-c2nc3cnccn3c2Nc2ccc(C(=O)NC(C)C)cc2)cc1OC | 661 |

| SMILES | RP-LC retention time [s] |
| --- | --- |
| CCN1C(=O)COc2ccc(-c3csc(NC(=O)C(C)(C)C)n3)cc21 | 910 |
| Cc1cccc(S(=O)(=O)N2C[C@H](c3nc(-c4cccnc4)no3)[C@@H](C)C2)c1 | 914 |
| Cc1ccc(Cn2nnc(C(=O)NCc3ccco3)c2-n2cccc2)cc1 | 1010 |
| COc1ccc(OCC(O)CN(CCO)CC(O)Cn2ccc3ccccc32)cc1 (stereo not drawn) | 591 |
| O=C(Nc1cc(-c2ccccn2)no1)c1ccc(F)cc1 | 795 |
| O=C(NC1CCCC1)N1CCC(c2nc(C3CCOCC3)no2)CC1 | 691 |
| O=C(CCc1c(-c2ccc(Cl)cc2)nc2ccccn12)NCc1ccc2c(c1)OCO2 | 654 |
| CC(=O)Nc1cccc(C2OC(c3cc(Br)ccc3OC(C)=O)=NN2C(C)=O)c1 (stereo not drawn) | 828 |
| CC(C(=O)N1CCCc2ccccc21)n1cnc2nc3c(cc2c1=O)CCCC3 (stereo not drawn) | 818 |
| O=C1CCCC(=O)N1CCS(=O)(=O)NCc1cccc(Oc2ccc(F)cc2)c1 | 840 |
| CC(C)c1csc(-c2csc(S(=O)(=O)NCc3ccc(F)cc3)c2)n1 | 1120 |
| CS(=O)(=O)Nc1ccc(-c2noc(CN3C(=O)COc4ccccc43)n2)cc1 | 805 |
| Cc1cc(NS(=O)(=O)c2ccc3c(c2)C(=O)N(C)c2ncccc2O3)ccc1F | 951 |
| O=C(CCSc1ccccc1)NCCn1nc(-c2ccc(Cl)cc2)ccc1=O | 600 |
| CN(C)C(=O)c1ccc2c(c1)nc(CN(C)C(=O)Nc1ccc(F)cc1)n2C | 598 |
| O=C(COc1ccccc1Cl)N1CCCCC1CCN1CCCC1 (stereo not drawn) | 656 |
| O=C(NCc1ccc(F)cc1F)c1c(O)c2cccnc2n(Cc2ccccc2)c1=O | 1400 |
| Cc1ccccc1S(=O)(=O)N1[C@H]2CC[C@@H]1c1cnc(-c3ccccc3)nc1C2 | 1140 |
| C=CCN1C(=O)C(C)(C)COc2cc(NS(=O)(=O)c3ccc(Cl)s3)ccc21 | 975 |
| Cc1noc(-c2cccc(OC3CN(C(=O)NC(C)C)C3)c2)n1 | 760 |
| Cn1cc(CC(=O)NCc2ccc(Cl)cc2)c2cccnc21 | 706 |
| CCOC(=O)N1CCN(S(=O)(=O)c2c[nH]c(=O)[nH]c2=O)CC1 | 582 |
| C=CCNC(=O)N1CCCN(C2=NS(=O)(=O)C(c3cccc(Cl)c3)=C2C)CC1 | 773 |
| CCOc1ccc(-c2noc(-c3nn(-c4ccccc4)ccc3=O)n2)cc1 | 919 |
| CCc1cccc(NC(=O)N2CCc3c(c(-c4nc(C5CC5)no4)nn3C)C2)c1 | 928 |

Now from value to compound:

| RP-LC retention time [s] | SMILES |
| --- | --- |
| 780 | Cc1ccc(N(C)C(=O)C2CCN(S(=O)(=O)c3ccc4c(c3)NC(=O)CO4)CC2)cc1 |
| 938 | Cc1cc(C)cc(N2CCC(NC(=O)Nc3cccc(F)c3C)C2=O)c1 (stereo not drawn) |
| 1310 | CCOc1nc2ccccc2nc1N1CCCC(C(=O)Nc2cccc(Cl)c2C)C1 (stereo not drawn) |
| 967 | COc1ccccc1CNS(=O)(=O)c1ccc(F)c(C(=O)Nc2cc(C)ccc2C)c1 |
| 726 | CC(C)n1cnc(S(=O)(=O)N2CCCC(C(=O)Nc3cccc(F)c3)C2)c1 (stereo not drawn) |
| 723 | Cc1cccc(NC(=O)N2CCC3(CC2)NC(=O)c2ccccc2O3)c1 |
| 1080 | CCc1nc(-c2csc(S(=O)(=O)N3CCC(C(=O)Nc4ccc(C)cc4Cl)CC3)c2)no1 |
| 862 | CCc1cccc(NC(=O)C2CCN(S(=O)(=O)c3ccc4c(c3)sc(=O)n4C)CC2)c1 |
| 1050 | O=C(NCCc1ccccc1)N1CCCC1c1nc(-c2cccc(Cl)c2)no1 (stereo not drawn) |
| 927 | CCCC(C)C(=O)NC1CCN(C2=NS(=O)(=O)C(c3ccc(CC)cc3)=C2C)CC1 (stereo not drawn) |
| 872 | CCOC(=O)Cn1c(C2CC(=O)N(c3cccc(Cl)c3)C2)nc2ccccc21 (stereo not drawn) |
| 736 | COc1ccccc1-c1nc(Cn2cccc(S(=O)(=O)N3CCCC3)c2=O)no1 |
| 830 | CC1=C(c2ccc(F)cc2)S(=O)(=O)N=C1N1CCCN(C(=O)c2sccc2C)CC1 |
| 1290 | CCn1c(=O)c(C(=O)Nc2cccc(SC)c2)c(O)c2sccc21 |
| 1090 | CS(=O)(=O)N1CC(C(=O)Nc2ccccc2-c2ccccc2)Oc2ccccc21 (stereo not drawn) |
| 955 | Cc1ccsc1CCNC(=O)C1CCN(S(=O)(=O)c2c(C)nn(-c3ccccc3)c2C)CC1 |
| 612 | COc1ccc(-n2cc(C(=O)N3CCC(C(N)=O)CC3)nn2)cc1 |
| 809 | COc1ccccc1CNC(=O)c1cc(C)nn1-c1ccccc1 |
| 1020 | Cc1cc(C)cc(S(=O)(=O)N2CCC(C(=O)NCCc3csc(-c4ccccc4)n3)CC2)c1 |

| RP-LC retention time [s] | SMILES |
| --- | --- |
| 793 | O=C(Nc1nnc(C2CC(=O)N(c3ccccc3)C2)o1)c1ccc(C(F)(F)F)cc1 (stereo not drawn) |
| 1130 | O=C(NC1CCCC1)C1CCN(c2ncccc2-c2nc(-c3ccc(Cl)cc3)no2)CC1 |
| 847 | CCCn1nc(CNC(=O)Cc2cccs2)c2ccccc21 |
| 960 | Cn1cc(S(=O)(=O)N2CCCC2)cc1C(=O)N1CCC(Cc2ccccc2)CC1 |
| 660 | Cc1nc(CNC(=O)C2CCN(C(=O)NCCc3ccccc3)CC2)cs1 |
| 949 | CCN(C(=O)c1ccc(C(C)(C)C)cc1)c1nc(-c2ccccc2)cs1 |
| 597 | CC(C)n1cnc2cc(CNC(=O)c3ccccc3Cl)ccc21 |
| 601 | Cc1cn2c(=O)c(S(=O)(=O)N3CCN(c4ccccn4)CC3)c(C)nc2s1 |
| 738 | O=C(Cn1c(=O)oc2ccccc21)NCC1CCN(C(=O)c2cc3ccccc3o2)CC1 |
| 821 | CCOC(=O)N1CCN(c2ncc(S(=O)(=O)c3ccccc3)c(N)n2)CC1 |
| 674 | CC(C)CN1C(=O)c2ccccc2C(C(=O)N2CCN(c3ccccn3)CC2)C1c1cccs1 (stereo not drawn) |
| 1060 | CC(C)(C)c1noc(-c2ccc(-n3cnc(C(=O)NCc4ccccc4)c3)nc2)n1 |
| 641 | CC(=O)Nc1ccc(C(=O)NC2CCN(c3cc(-c4cccs4)[nH]n3)C2)cc1 (stereo not drawn) |
| 845 | COC(=O)c1cc2n(n1)CC(C)(C(=O)NC1CCCC1)N(c1ccc(F)cc1C)C2=O (stereo not drawn) |
| 639 | CCN1CCN(CCNC(=O)C2CCN(c3nccnc3Sc3ccc(C)cc3)CC2)CC1 |
| 935 | CC(C)n1c(=O)sc2cc(S(=O)(=O)N3CCC(C(=O)NC4CCCCC4)CC3)ccc21 |
| 667 | O=C(Cn1cccc(S(=O)(=O)N2CCOCC2)c1=O)N1CCc2ccccc21 |
| 690 | CCN1CCn2cc(S(=O)(=O)Nc3ccccc3OC)cc2C1=O |
| 676 | CN(CCCNC(=O)C1CCCN(C(=O)c2cccc(Cl)c2)C1)c1ccccc1 (stereo not drawn) |
